# Assay results as given in patent US10058525B2, “Application of chlorogenic acid in preparing medicines for treating lupus erythematosus” (SICHUAN JIUZHANG BIOLOGICAL SCIENCE AND TECHNOLOGY CO., LTD., priority 2015, dated 2018).
# “Also recorded” adds a separate entry of the source.
# Assays:
# [1] = system: ANA; test: Serologic detection of ANA by immunofluorescence on HEp-2 cell sheets, serum of UV + LPS lupus model mice; assay type: in vivo, BALB/c mice; design: key: (+): positive; (−): negative; (++++): intenseintensity; (+++): stronger fluorescent intensity; details: day 14; positive controls (artesunate 2 mg/kg*d, prednisone 1 mg/kg*d) by stomach perfusion
# Procedure: (§1) The back of mice was shaved and acutely exposed to Ultraviolet of 2 h/d*3 d, with a distance of 30 cm. After exposure to UV, 2.5 mg/kg of LPS was administrated once by ip, and after 24 h, the model was successfully established; the mice in the normal control group received normal saline via ip. 24 h after injection of LPS (ip), medicines were given to the model mice by intragastric administration. Chlorogenic acid test groups received high, middle, and low doses of medicines, by intragastric administration at a respective dosage of 10 mg/kg*d, 20 mg/kg*d, and 40 mg/kg*d. The positive control group A received 2 mg/kg*d of artesunate by stomach perfusion, while the positive control group B received 1 mg/kg*d of prednisone by stomach perfusion. Mice in the model and normal control group all received 0.4 ml/mouse normal saline by gavage. After 15 days of administration, animals in each group were taken blood by separating eyeballs on days 14, 21, 28, and after cultured in water bath at 37° C. for 1 h, the blood sample was centrifugated at 2000 r/min for 5 min, to draw serum for use. On day 21, after blood collection, animals were sacrificed by dislocation, followed by collection of liver and kidney, and they were placed in fixative solutions of electron microscope and light microscrope, respectively. Serum of mice was diluted at 1:100 with special buffer solution of Shenzhen Hengjia, and then 200 μL of diluted serum was respectively added to the reactive tank with corresponding number, cultured in the incubator at 37° C. for 30 min, and washed with the buffer solution four times, 2 min for each time; 200 μL of diluted biotin goat anti-mouse IgG (1:100) was added, cultured in the incubator at 37° C. for 30 min, and then washed with the buffer solution four times, 2 min for each time; 100 μL of diluted HRP-avidin (1:100) was added, cultured in the incubator at 37° C. for 30 min, and then washed as mentioned-above; reactive solutions A and B were added till appearance of positive bands, then washed with the buffer solution. Compared with the standard bands of ENA polypeptide antibody spectrum in the same kit, if the positive bands appeared at 28/29,13.5 ku polypeptide; 15,16.5,38 kupolypeptide; 52 kupolypeptide and 47/48,45 kupolypeptide, that can be determined as anti-Sm, anti-Rib, anti-ssA, and anti-ssB positive antibody. Serum was diluted with PBS at 1:40, then 20-30 μL of diluted serum was dropped into the scrobiculus of HEp-2 cell sheets, each cell sheet for each group. In the process of dropping serum, it should be noted that the surface of cell sheet can not be touched. After addition of serum, cell sheet was placed in wet box and kept for 30 min at room temperature (25° C.). After 30 min, the cell sheet was taken out, and serum was carefully washed out with PBS, then carefully washed twice with PBS, 5 min for each time; after washing, the remained PBS was removed by special absorbent paper of […] company (In this process, it should be noted that becoming dry of cell substrates will affect the results). 20-30 μL of diluted (PBS, 1:100) FITC goat anti-mouse IgG was added by dropping, and then incubated in wet box at room temperature for 30 min. After washing with PBS, steps were same to above. The remained PBS was removed by absorbent paper, and 1-2 drops of fluorescent mounting media were added to the cell sheet. The cover glass was mounted, observed under Olympus BH-2 universal microscope, and then photographed.
# [2] = system: ANA; test: as above; assay type: in vivo, BALB/c mice; details: artesunate, 28 days, ×200
# Procedure: The back of mice was shaved and acutely exposed to Ultraviolet of 2 h/d*3 d, with a distance of 30 cm. After exposure to UV, 2.5 mg/kg of LPS was administrated once by ip, and after 24 h, the model was successfully established; the mice in the normal control group received normal saline via ip. 24 h after injection of LPS (ip), medicines were given to the model mice by intragastric administration. Chlorogenic acid test groups received high, middle, and low doses of medicines, by intragastric administration at a respective dosage of 10 mg/kg*d, 20 mg/kg*d, and 40 mg/kg*d. The positive control group A received 2 mg/kg*d of artesunate by stomach perfusion, while the positive control group B received 1 mg/kg*d of prednisone by stomach perfusion. Mice in the model and normal control group all received 0.4 ml/mouse normal saline by gavage. After 15 days of administration, animals in each group were taken blood by separating eyeballs on days 14, 21, 28, and after cultured in water bath at 37° C. for 1 h, the blood sample was centrifugated at 2000 r/min for 5 min, to draw serum for use. On day 21, after blood collection, animals were sacrificed by dislocation, followed by collection of liver and kidney, and they were placed in fixative solutions of electron microscope and light microscrope, respectively. Serum of mice was diluted at 1:100 with special buffer solution of Shenzhen Hengjia, and then 200 μL of diluted serum was respectively added to the reactive tank with corresponding number, cultured in the incubator at 37° C. for 30 min, and washed with the buffer solution four times, 2 min for each time; 200 μL of diluted biotin goat anti-mouse IgG (1:100) was added, cultured in the incubator at 37° C. for 30 min, and then washed with the buffer solution four times, 2 min for each time; 100 μL of diluted HRP-avidin (1:100) was added, cultured in the incubator at 37° C. for 30 min, and then washed as mentioned-above; reactive solutions A and B were added till appearance of positive bands, then washed with the buffer solution. Compared with the standard bands of ENA polypeptide antibody spectrum in the same kit, if the positive bands appeared at 28/29,13.5 ku polypeptide; 15,16.5,38 kupolypeptide; 52 kupolypeptide and 47/48,45 kupolypeptide, that can be determined as anti-Sm, anti-Rib, anti-ssA, and anti-ssB positive antibody. Serum was diluted with PBS at 1:40, then 20-30 μL of diluted serum was dropped into the scrobiculus of HEp-2 cell sheets, each cell sheet for each group. In the process of dropping serum, it should be noted that the surface of cell sheet can not be touched. After addition of serum, cell sheet was placed in wet box and kept for 30 min at room temperature (25° C.). […]
# [3] = system: lupus erythematosus model mice (renal glomerular capsule wall epithelial cells); test: Electron microscope observation of kidney samples, lupus model mice; assay type: in vivo, BALB/c mice; details: positive controls (artesunate, prednisone), 21 days; compared with the model group
# Procedure: (§2) The back of mice was shaved and acutely exposed to Ultraviolet of 2 h/d*3 d, with a distance of 30 cm. After exposure to UV, 2.5 mg/kg of LPS was administrated once by ip, and after 24 h, the model was successfully established; the mice in the normal control group received normal saline via ip. 24 h after injection of LPS (ip), medicines were given to the model mice by intragastric administration. Chlorogenic acid test groups received high, middle, and low doses of medicines, by intragastric administration at a respective dosage of 10 mg/kg*d, 20 mg/kg*d, and 40 mg/kg*d. The positive control group A received 2 mg/kg*d of artesunate by stomach perfusion, while the positive control group B received 1 mg/kg*d of prednisone by stomach perfusion. Mice in the model and normal control group all received 0.4 ml/mouse normal saline by gavage. After 15 days of administration, animals in each group were taken blood by separating eyeballs on days 14, 21, 28, and after cultured in water bath at 37° C. for 1 h, the blood sample was centrifugated at 2000 r/min for 5 min, to draw serum for use. On day 21, after blood collection, animals were sacrificed by dislocation, followed by collection of liver and kidney, and they were placed in fixative solutions of electron microscope and light microscrope, respectively. On day 21, the sample used for observation under electron microscope was fixed in mixed stationary solution of 2% paraformaldehyde+0.25% glutaral for 4 h, rinsed with TBS, treated with 1% osmic acid, followed by fixation for 1 h, rinsed with buffer solution, dehydrated with acetone, dyed with uranyl acetate for 2 h, macerated in Epon812 and embedded, and cut into slices with LEICA ultramicrotome. The slices were stained with lead solution, and the sample was observed under transmission electron microscope when it was dry.
# [4] = system: ENA polypeptide antibodies (anti-Sm, anti-Rib, anti-ssA, anti-ssB); test: Serologic detection of ENA polypeptide antibodies by immunoblotting in serum of UV + LPS lupus model mice; assay type: in vivo, BALB/c mice; design: key to Anti-Rib: (+): positive; (−): negative; key to Anti-Sm / Anti-ssA / Anti-ssB: (+): positive; (−): negative; (++++): intenseintensity; (+++): stronger fluorescent intensity; details: for Anti-Rib / Anti-Sm / Anti-ssA / Anti-ssB: positive controls (artesunate 2 mg/kg*d, prednisone 1 mg/kg*d) by stomach perfusion; for ENA polypeptide antibodies found positive (FIG. 1): treated 14 days, positive controls (artesunate, prednisone)
# Procedure: as §1
# [5] = system: ANA; test: Serologic detection of ANA by immunofluorescence on HEp-2 cell sheets, serum of UV + LPS lupus model mice; assay type: in vivo, BALB/c mice; design: key: (+): positive; (−): negative; (++++): intense fluorescence; (+++): stronger fluorescence; (++): weeker fluorescence; details: positive controls (artesunate 2 mg/kg*d, prednisone 1 mg/kg*d) by stomach perfusion
# Procedure: as §1
# [6] = system: lupus erythematosus model mice (kidney, liver); test: Triple staining (silver staining) of kidney and liver sections under light microscope, lupus model mice; assay type: in vivo, BALB/c mice; details: positive controls (artesunate, prednisone); for basilar membrane of renal glomerulus and tubule, pathological section: 21 days; for glomerular basement membrane thickness compared with the normal mice (FIG. 9, FIG. 10): 28 days, ×50
# Procedure: as §2, with “respectively.” for “respectively. On day 21, the sample used for observation under electron microscope was fixed in mixed stationary solution of 2% paraformaldehyde+0.25% glutaral for 4 h, rinsed with TBS, treated with 1% osmic acid, followed by fixation for 1 h, rinsed with buffer solution, dehydrated with acetone, dyed with uranyl acetate for 2 h, macerated in Epon812 and embedded, and cut into slices with LEICA ultramicrotome. The slices were stained with lead solution, and the sample was observed under transmission electron microscope when it was dry.”
# […] The thickness of slice is 3 μm, and at beginning of staining, wax was routinely deprived to water. After oxidation with 0.5% periodic acid, the slice was macerated in hexamine silver fluid for about 2 h (constant temperature 58° C.), washed with distilled water, dyed with hematoxylin for 1 min. After washing with water, the slice was dyed by dropping the ponceau staining solution for 5 min, differentiated with 70% ethanol, dehydrated with gradient ethanol, cleared with xylene, and sealed with neutral gum.
# [7] = system: lupus erythematosus; test: Screening medicines for treatment of lupus erythematosus; details: screening of extracts and potency constituents; no method given
SMILES,ANA [1],proliferative degree of renal glomerular capsule wall epithelial cells [3],Anti-Rib ([4]; day 14),Anti-Sm ([4]; day 14),Anti-ssA ([4]; day 14),Anti-ssB ([4]; day 14),Anti-Rib ([4]; day 21),Anti-Sm ([4]; day 21),Anti-ssA ([4]; day 21),Anti-ssB ([4]; day 21),Anti-Rib ([4]; day 28),Anti-Sm ([4]; day 28),Anti-ssA ([4]; day 28),Anti-ssB ([4]; day 28),ENA polypeptide antibodies found positive (FIG. 1) [4],ANA ([5]; day 21),ANA ([5]; day 28),"basilar membrane of renal glomerulus and tubule, pathological section [6]","glomerular basement membrane thickness compared with the normal mice (FIG. 9, FIG. 10) [6]",inhibition on lupus erythematosus [7],further results
"C[C@H]1[C@H](OC(=O)CCC(=O)O)O[C@@H]2O[C@@]3(C)CC[C@H]4[C@H](C)CC[C@@H]1[C@@]24OO3 [Artesunate, artesunate, reference compound]",(++++),slightly relieves; also recorded: somewhat relieved,(+),(+),(+),(+),(+),(+),(+),(+),(−),(+),(+),(+),"anti-Sm, anti-ssA and anti-ssB bodies are positive",(+++),(+++),increased thickness compared with the normal mice,increased thickness,–,fluorescence intensity of ANA (FIG. 5) [2]: doesn't decrease
"C[C@]12C=CC(=O)C=C1CC[C@@H]1[C@@H]2C(=O)C[C@@]2(C)[C@H]1CC[C@]2(O)C(=O)CO [Prednisone, prednisone, reference compound]",(++++),slightly relieves; also recorded: somewhat relieved,(+),(+),(+),(+),(+),(+),(+),(+),(+),(+),(+),(+),"anti-Sm, anti-ssA and anti-ssB bodies are positive",(+++),(+++),increased thickness compared with the normal mice,obviously increased thickness,–,–
OCC1=C[C@@H](O)[C@@H]2C=CO[C@@H](O[C@@H]3O[C@H](CO)[C@@H](O)[C@H](O)[C@H]3O)[C@H]12 [aucubin],–,–,–,–,–,–,–,–,–,–,–,–,–,–,–,–,–,–,–,relatively obvious inhibition,–
O=C(O)C1=CO[C@@H](O[C@@H]2O[C@H](CO)[C@@H](O)[C@H](O)[C@H]2O)[C@@H]2C(CO)=CC[C@H]12 [geniposidic acid],–,–,–,–,–,–,–,–,–,–,–,–,–,–,–,–,–,–,–,relatively obvious inhibition,–
